Measured values as given in US20250369032A1 (priority 2023, published 2025).
Values joined by “and” are separate entries in the source; they are usually repeats but may differ in a detail not shown here. Identical values can stand only once. Like-named read-outs stand apart in the source and are kept apart here.

Key:
alkaline phosphatase [1] = biological target: T1, alkaline phosphatase (Bos taurus, UniProt P19111); assay type: biochemical; parameters: purchased Sigma Aldrich, St. Louis, MO P0114 (original source); P7640 (second source, 'new AP' condition only)
T1 sequence (P19111 20-506): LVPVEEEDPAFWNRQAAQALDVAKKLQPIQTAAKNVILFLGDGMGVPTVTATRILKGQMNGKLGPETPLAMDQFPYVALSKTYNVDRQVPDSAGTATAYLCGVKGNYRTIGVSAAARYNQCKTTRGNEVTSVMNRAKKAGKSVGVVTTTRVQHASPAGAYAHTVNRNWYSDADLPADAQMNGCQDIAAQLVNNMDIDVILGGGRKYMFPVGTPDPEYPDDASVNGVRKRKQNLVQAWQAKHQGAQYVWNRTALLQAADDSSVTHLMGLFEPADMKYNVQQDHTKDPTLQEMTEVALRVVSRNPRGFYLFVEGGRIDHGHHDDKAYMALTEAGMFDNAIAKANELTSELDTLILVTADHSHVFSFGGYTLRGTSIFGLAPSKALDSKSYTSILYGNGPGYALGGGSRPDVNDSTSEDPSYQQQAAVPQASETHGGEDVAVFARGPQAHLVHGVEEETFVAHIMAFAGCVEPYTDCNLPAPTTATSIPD

skin = details: cited from earlier work
[2] = test system: endogenous skin phosphatase; assay type: biochemical, porcine; details: optical density compared to the naïve condition
Experimental: Our next studies involved applying the test substance (500 μL) directly to the epidermis side of previously frozen porcine skin (Spear Products, Coopersburg, PA) that is placed in a holder that only exposes the epidermis side for 30 minutes, adding phosphate buffered saline (PBS) with added sodium azide (metabolic inhibitor that ensure no viable tissue), then aliquoting into cuvettes to read at an optical density of 300 nm. […] So, at the end of the initial studies described above, almost out of frustration, we tried to probe for released phosphatase activity using p-Nitrophenyl phosphate disodium salt (PNPP; Sigma Aldrich, St. Louis, MO) substrate solution to detect any presence of phosphatase.
• 1. Thaw 2 pieces of frozen porcine skin • a. Punch out as many skin discs and mount in holders • 2. Label cuvettes (3 for each chemical)
• 1. Add 500 μL of test chemical to holder; incubate at room temperate for 30 minutes • 2. After 30 minutes, add 2 mL of PBS-Azide to both the holder containing the test chemical; forcefully pipette and re-pipette 10 times • 3. From the holder, aliquot 400 μL into 3 cuvettes; forcefully pipette and re-pipette 3 times before dispensing into cuvettes
Skin corrosion by GHS Category 1 dermal corrosive chemicals results in the disintegration of the epidermis into the dermis.

alkaline phosphatase [3] = biological target: T1, alkaline phosphatase; assay type: biochemical; parameters: purchased Sigma Aldrich, St. Louis, MO P0114 (original source); P7640 (second source, 'new AP' condition only); details: original alkaline phosphatase 1:100 dilution
Excerpt: Our next study focused on an in vitro method of detecting the potential of dermal corrosives to inhibit nonspecific phosphatases that may be released from the skin. We decided to test pure […] instead of relying on endogenous skin phosphatase. Alkaline phosphatase (Sigma Aldrich, St. Louis, MO) was purchased and suspended to make the reaction reagent (10,000 units). […] We note that the ratio used was 0.1 g/ml or 10% chemical-which is far in excess of any pharmaceutical applications. We further note that pharmaceutical enzyme inhibition tests, studies an use involve highly specific active site binding and these assays are conducted at ratios of micrograms-femtograms per ml. These studies are done at these ranges because these are the realistic concentrations for drug applications and therapeutics. […] So when a 50 Kg human consumes the tables, the tissues will be exposed at a 5 mg/50 kg=0.1 mg/kg=0.0000001 g/ml.
Next two quantitative methods were evaluated: 1) using the discs parts from our OptiSafe™ test method and 2) directly into the 24-well plate.
• 1. Alkaline phosphatase reaction reagent • a. Take 1 vial of AP, add 1 mL of PBS, mix by pipette/re-pipette 10 times • b. To a 50 mL conical tube, add 1 mL of the AP solution prepared above and 40 mL of PBS • 2. Prepare two 24-well plates (1 with discs, 1 without discs) • 3. […] Aliquot 200 μL PNPP and PBS
• 1. Plate 1 (No Discs) • a. Add 1.25 mL from the prepared PBS-AP conical tube to each well (11 wells) • b. Add 100 μL of the test material to the well, mix with the same pipette tip, dispose and repeat for the rest of the test materials • c. Wrap the plate in saran wrap and place into the container • 2. Plate 2 (Discs) • a. Configure the 11 discs in the plate so the plate cover is stable • b. Add 1.25 mL from the prepared PBS-AP conical tube to each well (11 wells) • c. Add 100 μL of the test material to the center of the disc and repeat for the rest of the test materials • d. Put the plate cover on and place into the container • 3. […] Incubate for 1 hour
For the new study, the alkaline phosphatase was suspended in phosphate buffered saline (PBS) to make the reaction reagent. Then, 100 μL of the test chemical is added directly into the corresponding wells on a 24-well plate with 1.25 mL of alkaline phosphatase reaction reagent already aliquoted.
• 1. Alkaline phosphatase reaction reagent • a. Take 1 vial of AP, add 1 mL of PBS, mix by pipette/re-pipette 10 times • b. To a 50 mL conical tube, add 1 mL of the AP solution prepared above and 40 mL of PBS • 2. Prepare two 24-well plates • 3. […] Aliquot with 200 μL PNPP and PBS • 4. Prepare glass vials Repeat Procedure from Jan. […] 24-well plate • a. Add 1.25 mL from the prepared PBS-AP conical tube to each well (11 wells) • b. Add 100 μL of the test material to the well, mix with the same pipette tip, dispose and repeat for the rest of the test materials • c. Wrap the plate in saran wrap and place into the container • 2. […] To the prepared 96-well plate with 200 μL PNPP or PBS, add 20 μL from the 24-well plate • 4. Incubate for 1 hour • 5.
• 1. 24-well plate • a. Add 1.25 mL from the prepared PBS-AP conical tube to each well (11 wells) • b. Add 100 μL of the test material to the well, mix with the same pipette tip, dispose and repeat for the rest of the test materials • c. After 10 minutes, mix each well • 2.

porcine skin = details: R 1 and 2
Experimental: Our initial studies involved using fresh and frozen porcine skin “buttons”. These buttons were punched out of porcine skin (Spear Products, Cooopersburg, PA) using a […] biopsy punch tool. Three different kinds of skin buttons were prepared from fresh porcine skin, frozen porcine skin, and frozen porcine skin with the fatty layer removed. […] The next day, the tubes were taken out and vortexed and 500 μL of the solution was aliquoted into cuvettes to read at three different optical density wavelengths (OD190, OD290, OD300) to evaluate the best response.
• 1. Thaw 2 pieces of frozen porcine skin • 2. Punch out buttons: 24 buttons in each tube filled with 40 mL PBS-Azide
• 1. Plate layout for dosing:
• 1. Dose each tissue with 140 μL of test chemical • 2.
• 1. Take out of incubator and vortex pulse 3× • 2. Aliquot 500 μL to cuvette and read results at OD190, OD290, and OD300
There were three readings done at an optical density of 190, 290, and 300 nm to evaluate the best response. […] To address the variable exposure conditions, our next studies involved placing a larger porcine skin section into a holder that exposes only the epidermis side with no potential for test chemical exposure from the backside or through the sides.

[4] = 1:100, 20 μL into 180 μL, 0.5 mL microcentrifuge tubes, 4 hours RT, PNPP 60 min, 405 nm
[5] = average of R1-R3, 1:100, 20 μL into 180 μL, 4 hours RT, PNPP 60 min, 405 nm
[6] = skin, chemical lists of the protocols
[7] = fresh porcine skin, 140 μL, 18 hours at 37° C. in PBS-Azide
[8] = frozen porcine skin with fat layer removed

Row | SMILES | A1-Results R1 (alkaline phosphatase [1]; [4]) | A1-Results R3 (alkaline phosphatase [1]; [4]) | A1-Results AVG (alkaline phosphatase [1]; [5]) | A1-Results AVG (alkaline phosphatase [1]) | A1-Results R1 (alkaline phosphatase [1]) | A1-Results R3 (alkaline phosphatase [1]) | also measured
1 | CSc1ccc(C=O)cc1 | 3.354 | 3.238 | 3.344 | – | – | – | –
2 | CC/C=C\CC1=C(C)CCC1=O | – | – | – | 3.502 | 3.502 | 3.502 | –
3 | CC(C)=CCC/C(C)=C/CO | 3.406 | 3.502 | 3.470 | – | – | – | in vivo GHS (skin; [6]): Cat. 2 (Category 2 (irritation; mean score of ≥2.3 and ≤4.0 for erythema/eschar or for oedema in at least 2 of 3 tested animals at 24, 48, and 72 hours or inflammation that persists to the end of 14 days))
4 | CCCCCBr [1-Bromopentane] | 3.428 | 3.056 | 3.261 | – | – | – | in vivo GHS (skin; [6]): Cat. 2 (Category 2 (irritation; mean score of ≥2.3 and ≤4.0 for erythema/eschar or for oedema in at least 2 of 3 tested animals at 24, 48, and 72 hours or inflammation that persists to the end of 14 days))
5 | CCCCCCCCCCO [1-Decanol] | – | – | – | 3.449 | 3.502 | 3.380 | –
6 | CC(C)(O)CCc1ccccc1 [2-Methyl-4-phenyl-2-butanol] | – | – | – | – | – | – | percent of phosphatase measured (first reading) [2]: 98.6%; percent of phosphatase measured (second reading) [2]: 100.0%; percent of phosphatase measured, average [2]: 99.3%; Corrosive (skin; Table 2): No
7 | CC(C)(C)c1ccccc1O [2-tert-Butylphenol] | 0.437 | 0.607 | 0.524 | – | – | – | prediction based on OD405 values (FIG. 6B) (alkaline phosphatase [1]; original alkaline phosphatase 1:1, 18 hours room temperature): incorrectly predicted; prediction based on OD405 values (FIG. 6D) (alkaline phosphatase [3]): correctly predicted; in vivo GHS (skin; rabbit, in vivo): Cat. 1B/1C
8 | BrCCc1ccccc1 [(2-Bromoethyl)benzene] | – | – | – | – | – | – | percent of phosphatase measured (first reading) [2]: 100.0%; percent of phosphatase measured (second reading) [2]: 100.0%; percent of phosphatase measured, average [2]: 100.0%; Corrosive (skin; rabbit, in vivo): No
9 | CC(=O)OCc1ccccc1 [Benzyl Acetate] | 3.401 | 3.502 | 3.463 | – | – | – | –
10 | O=C(OCc1ccccc1)c1ccccc1O [Benzyl Salicylate] | 3.502 | 3.445 | 3.464 | – | – | – | –
11 | CC(C=O)Cc1ccc(C(C)C)cc1 (stereo not shown) [Cyclamen aldehyde] | 3.405 | 3.502 | 3.470 | – | – | – | percent of phosphatase measured (first reading) [2]: 100.0%; percent of phosphatase measured (second reading) [2]: 100.0%; percent of phosphatase measured, average [2]: 100.0%; OD190 (porcine skin; [7]): 0.694 and 0.716; OD290 (porcine skin; [7]): 0.290 and 0.477; OD300 (porcine skin; [7]): 0.274 and 0.447; OD190 (porcine skin; [8]): 0.222 and 0.214; OD290 (porcine skin; [8]): 0.195 and 0.153; OD300 (porcine skin; [8]): 0.142 and 0.119; OD290 (porcine skin; frozen porcine skin): 1.023 and 0.955; OD300 (porcine skin; frozen porcine skin): 0.901 and 0.852; Corrosive (skin; Table 2): No; in vivo GHS (skin; skin, Tables 1A-1C and 2): Cat. 2; in vivo GHS (skin; [6]): Cat. 2 (Category 2 (irritation; mean score of ≥2.3 and ≤4.0 for erythema/eschar or for oedema in at least 2 of 3 tested animals at 24, 48, and 72 hours or inflammation that persists to the end of 14 days))
12 | CCCCCCC=O [Heptanal] | – | – | – | 3.196 | 3.409 | 3.049 | percent of phosphatase measured (first reading) [2]: 100.0%; percent of phosphatase measured (second reading) [2]: 94.4%; percent of phosphatase measured, average [2]: 97.2%; Corrosive (skin; rabbit, in vivo): No; in vivo GHS (skin; rabbit, in vivo): Cat. 2
13 | CC(CC=O)CCCC(C)(C)O (stereo not shown) [Hydroxycitronellal] | – | – | – | 3.356 | 3.412 | 3.154 | –
14 | CC(C)O [Isopropanol] | – | – | – | 3.423 | 3.484 | 3.305 | –
15 | CCCCCCCCCCCCCC(=O)OC(C)C [Isopropyl Myristate] | – | – | – | 3.451 | 3.373 | 3.484 | –
16 | OCCc1ccccc1 [Phenylethyl alcohol] | – | – | – | 3.469 | 3.502 | 3.403 | –
17 | OCCOCCOCCO [Triethylene glycol] | – | – | – | – | – | – | percent of phosphatase measured (first reading) [2]: 29.5%; percent of phosphatase measured (second reading) [2]: 28.2%; percent of phosphatase measured, average [2]: 28.9%; Corrosive (skin; rabbit, in vivo): No
18 | CC1=CCC(C(C)(C)O)CC1 (stereo not drawn) [alpha-Terpineol] | 3.502 | 3.502 | 3.502 | – | – | – | –
19 | CCCSSCCC [di-n-Propyl disulfide] | 3.467 | 3.395 | 3.445 | – | – | – | percent of phosphatase measured (first reading) [2]: 68.1%; percent of phosphatase measured (second reading) [2]: 71.6%; percent of phosphatase measured, average [2]: 69.9%; Corrosive (skin; Table 2): No; in vivo GHS (skin; skin, Tables 1A-1C and 2): Cat. 2; in vivo GHS (skin; [6]): Cat. 2 (Category 2 (irritation; mean score of ≥2.3 and ≤4.0 for erythema/eschar or for oedema in at least 2 of 3 tested animals at 24, 48, and 72 hours or inflammation that persists to the end of 14 days))
20 | CCCCCCCN [n-Heptylamine] | – | – | – | 2.557 | 2.141 | 2.862 | OD405 readings (FIG. 6D) (alkaline phosphatase [1]): 3.244 and 3.057 and 3.152; prediction based on OD405 values (FIG. 6B) (alkaline phosphatase [1]): incorrectly predicted; in vivo GHS (skin; [6]): Cat. 1B/1C
21 | C=C(C)[C@@H]1CC=C(CO)CC1 [p-Metha-1,8-dien-7-ol] | – | – | – | – | – | – | in vivo GHS (skin; [6]): Cat. 2 (Category 2 (irritation; mean score of ≥2.3 and ≤4.0 for erythema/eschar or for oedema in at least 2 of 3 tested animals at 24, 48, and 72 hours or inflammation that persists to the end of 14 days))
